Holding throughout (assay): growth of human tumour cells (NCI), 48 h
The test system of experiment [1] is LOX IMVI melanoma.
In experiment [2] the test system is SK-MEL-2 melanoma.
Experiment [3] has as its system SF-295 CNS.
Experiment [4] relates to SK-MEL-28 melanoma.
Experiment [5] relates to UO-31 renal.
Experiment [6] relates to HCT-116 colon.
In experiment [7] the test system is ACHN renal.
For experiment [8], the system named is OVCAR-5 ovarian.
Experiment [9] relates to OVCAR-4 ovarian.
Experiment [10] has as its system M14 melanoma.
In experiment [11] the test system is BT-549 breast.
Experiment [12] concerns 786-0 renal.
Experiment [13] relates to K-562 leukemia.
The subject of experiment [14] is HCT-15 colon.
Experiment [15] deals with CAKI-1 renal.
For experiment [16], the system named is SK-MEL-5 melanoma.
For experiment [17], the system named is IGROV1 ovarian.
The subject of experiment [18] is SNB-19 CNS.
Experiment [19] has as its system MCF7 breast.
Experiment [20] deals with HS 578T breast.

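A five-concentration, 48-hour dose response in 96-well plates underlies each endpoint, interpolated linearly between surrounding concentrations. Definition used: TGI = concentration required for complete inhibition of growth.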 A value given as a limit tells only on which side of the number the result lay.

As to `Cc1sc2nc3n(c(=O)c2c1C)N=CN(c1ccc(Cl)cc1)C3`, the TGI in experiment [1], in [2], in experiment [3], in experiment [4], in [5] and in experiment [6] was > 100 µM each time. Also, the TGI in experiment [7], in experiment [8], in [9], in experiment [10], in [11] and in experiment [12] was > 100 µM each time. For the same compound, the TGI in [13], in [14], in experiment [15], in [16], in [17] and in experiment [18] was > 100 µM throughout.
For the compound `COc1cc(C2c3cc4c(cc3C(=O)C3CCC(=O)N32)OCO4)cc(OC)c1O` (stereo not given), the TGI in experiment [2], in experiment [3], in experiment [4], in [5], in experiment [6] and in experiment [7] was > 50 µM each time. For the same compound, the TGI in experiment [8], in [9], in [10], in experiment [11], in experiment [12] and in [13] was > 50 µM each time. Besides, the TGI in experiment [14], in experiment [19], in [17] and in experiment [18] was > 50 µM throughout.
Take `O=C1OC([C@H](O)c2cccnc2)c2ccccc21` (stereo not given in full): the TGI in experiment [1], in experiment [2], in experiment [3], in experiment [4], in experiment [5] and in experiment [6] was > 10 µM each time. For the same compound, the TGI in experiment [7], in experiment [8], in [9], in [10], in experiment [12] and in experiment [20] was > 10 µM throughout. Moreover, the TGI in [13], in experiment [14], in [19], in [15], in experiment [16] and in experiment [17] was > 10 µM in each case. Moreover, in [18], the TGI was > 10 µM.
For the compound `CCSC1=N/C(=C\c2ccco2)C(=O)N1`, the TGI in experiment [1], in [2], in experiment [3], in experiment [4], in experiment [5] and in experiment [6] was > 100 µM in each case. The TGI in experiment [7], in experiment [8], in experiment [10], in [12], in experiment [20] and in experiment [13] was > 100 µM each time. In addition, the TGI in experiment [14], in experiment [19], in [16], in [17] and in [18] was > 100 µM each time.
With `COc1ccc(-c2nc(-c3cnccn3)n(C3OC(CO)C(O)C3O)n2)cc1` (stereo not given), the TGI in [1], in experiment [2], in experiment [3], in experiment [5], in [7] and in experiment [8] was > 10 µM throughout. The TGI in experiment [9], in [10], in experiment [11], in [12], in experiment [13] and in experiment [14] was > 10 µM throughout. Further, the TGI in experiment [19] and in [18] was > 10 µM each time.
Turning to `O=[N+]([O-])c1cccc2nccc(NCCN3CCOCC3)c12`, the TGI in experiment [1] is 46.6 µM; in experiment [2] it was 42.6 µM; in experiment [3], 25.6 µM; in experiment [4], 46.1 µM; in experiment [5], > 100 µM; in experiment [6], 30.5 µM. Besides, the TGI in experiment [7] is > 59.4 µM; in experiment [8], 38.4 µM; in [9], 25.6 µM; in [10], 34 µM; in experiment [12], > 57.5 µM; in [20], 57.6 µM. For the same compound, the TGI in experiment [13] was > 56.7 µM; in experiment [14], > 46.9 µM; in [19], 25.5 µM; in experiment [15] it was 20.2 µM; in [16], 22.3 µM; in experiment [17], 45.1 µM. The TGI in experiment [18] was > 100 µM.
Turning to `CO/C(=N\N=C\c1ccc(Cl)c(Cl)c1)c1ccncc1`, the TGI in experiment [1], in [2], in experiment [3], in experiment [4], in experiment [5] and in experiment [6] was > 10 µM throughout. Also, the TGI in experiment [7], in experiment [8], in experiment [10], in [12], in [13] and in [14] was > 10 µM in each case. Further, the TGI in experiment [19], in [15], in [16], in experiment [17] and in experiment [18] was > 10 µM each time.
`CC(=O)[C@H]1[C@H](O)C[C@@]2(C)[C@@H]3CCc4cc(O)c(OC5OC(CO)C(O)C(O)C5O)cc4C3(C)C(=O)C[C@]12C` (stereo not given in full): the TGI in [1], in [2], in [3], in experiment [4], in experiment [5] and in experiment [6] was > 100 µM each time. For the same compound, the TGI in experiment [7], in [8], in [9], in experiment [10], in experiment [11] and in experiment [12] was > 100 µM each time. Moreover, the TGI in experiment [13], in experiment [14], in experiment [19], in experiment [15], in experiment [16] and in experiment [17] was > 100 µM each time. Moreover, in experiment [18], the TGI was > 100 µM.
For `CCOC(=O)C(=CNc1ccc(F)c(F)c1)C(=O)OCC`, the TGI in experiment [1], in experiment [2], in experiment [4], in experiment [5], in experiment [6] and in [7] was > 100 µM in each case. For the same compound, the TGI in experiment [8], in [9], in [10], in experiment [12], in experiment [20] and in experiment [13] was > 100 µM throughout. Further, the TGI in [14], in [19], in [15], in experiment [16], in [17] and in experiment [18] was > 100 µM throughout.
As for `C1CSCC2(COC2)CSCCSCC2(COC2)CS1`, the TGI in [1], in [3], in [4], in experiment [5], in experiment [6] and in experiment [8] was > 100 µM each time. In addition, the TGI in experiment [9], in [10], in experiment [11], in experiment [12], in experiment [13] and in [14] was > 100 µM each time. Also, the TGI in experiment [19], in [16], in [17] and in experiment [18] was > 100 µM each time.
For the compound `CC1=CCC(C(C)(C)NC(=O)c2ccccc2)C/C1=N/O` (stereo not given), the TGI in experiment [1], in experiment [3], in experiment [4], in [5], in experiment [6] and in experiment [8] was > 100 µM each time. Moreover, the TGI in experiment [9], in experiment [10], in [11], in experiment [12], in experiment [13] and in [14] was > 100 µM in each case. Besides, the TGI in experiment [19], in experiment [16], in experiment [17] and in [18] was > 100 µM throughout.
For the compound `O=[N+]([O-])c1ccc(-c2nn3c(C45CC6CC(CC(C6)C4)C5)nnc3s2)c(Cl)c1`, the TGI in experiment [1], in [2], in [3], in experiment [4], in experiment [5] and in [6] was > 100 µM in each case. Further, the TGI in experiment [7], in experiment [8], in experiment [9], in experiment [10], in experiment [12] and in experiment [20] was > 100 µM in each case. The TGI in [13], in [14], in [15], in [16], in experiment [17] and in [18] was > 100 µM each time.
On to `COc1ccc(-c2nc(Nc3ccccc3)sc2Cc2sc(Nc3ccccc3)nc2-c2ccc(OC)cc2)cc1`, for which the TGI in experiment [1], in [4], in experiment [5], in [6], in experiment [7] and in experiment [8] was > 100 µM each time. Moreover, the TGI in [9], in experiment [11], in experiment [12], in [13], in experiment [14] and in [19] was > 100 µM each time. Moreover, the TGI in experiment [15], in experiment [16], in experiment [17] and in [18] was > 100 µM throughout.
`C1CCCN(NC2=NCCO2)CC1`: the TGI in [1], in experiment [2], in [3], in experiment [5], in experiment [6] and in experiment [7] was > 100 µM throughout. The TGI in experiment [8], in experiment [9], in [10], in [12], in experiment [20] and in [13] was > 100 µM in each case. Also, the TGI in experiment [14], in experiment [19], in [15], in [16], in experiment [17] and in experiment [18] was > 100 µM throughout.
Turning to `CCCNCCCCC(NC(C)=O)C(=O)NCc1ccccc1` (stereo not given), the TGI in [1], in [2], in experiment [3], in experiment [4], in experiment [5] and in experiment [6] was > 100 µM each time. Also, the TGI in experiment [7], in experiment [8], in experiment [9], in experiment [10], in [12] and in [13] was > 100 µM throughout. For the same compound, the TGI in experiment [14], in experiment [15], in experiment [16], in experiment [17] and in experiment [18] was > 100 µM throughout.
Turning to `COC(=O)/C=C(\C)CCC1SC1(C)C` (stereo not given), the TGI in experiment [1], in [2], in [3], in [4], in experiment [5] and in experiment [6] was > 100 µM each time. For the same compound, the TGI in experiment [7], in experiment [8], in experiment [9], in [10], in [12] and in experiment [13] was > 100 µM in each case. The TGI in experiment [14], in [15], in experiment [16], in experiment [17] and in [18] was > 100 µM each time.

The values are drawn from PubChem BioAssay (NCI).
